In patent US6703536B2, “Disposable absorbent article having a skin care composition containing an enzyme inhibitor” (The Procter & Gamble Company, priority 1998, dated 2004):
Square brackets hold non-standard residues; d marks the D form. Peptide text beside a SMILES is read from it. * marks the point of attachment. Sta = CC(C)C[C@H](N)[C@@H](O)CC(=O)O; Isovaleryl = CC(C)CC(=O)*

Target: protease activity in feces
Test: General Fecal Enzymes Method (casein-resorufin cleavage)
Format: biochemical, infant
Conditions: fecal suspension, casein-resorufin substrate, pH 7.8, 37° C. for 60 minutes
From the text: Pooled infant feces (at least five different samples) are collected in a manner to keep them free of urine and contamination and mixed with water to obtain a weight by weight (w/w) mixture (e.g., 1:50 w/w). This mixture is then mixed thoroughly to obtain a homogeneous suspension by homogenization or sonication. […] (Also, to ensure complete linearity the final absorbance should never exceed 1.5 OD405 units). If the activity of the pooled infant feces is outside this range, it is not possible to accurately determine IC50 values for putative protease inhibitors. However, the range of enzyme activity may be adjusted by increasing or decreasing the dilution factor accordingly for each enzyme. If this is not possible, a different group of subjects should be used to obtain the sample pool.
The general method described above for obtaining a sample of feces suitable for use in Specific Fecal Enzyme Methods can be easily adapted by one skilled in the art to obtain appropriate samples of feces suitable for use in the General Fecal Enzymes Method listed below without undue experimentation.
To test the efficacy of protease inhibitors against the protease activity in feces, 50 μL of inhibitor and 50 μL of fecal suspension are added to a 1.5 mL microcentrifuge tube. The microcentrifuge tube is mixed by inversion and incubated at 25° C. for 45 minutes. Then, 50 μL of protease buffer (200 mM TRIS buffer containing 20 mM CaCl2, pH 7.8) is added to the microcentrifuge tube. The microcentrifuge tube is again mixed by inversion and incubated at 25° C. for 45 minutes. […] The microcentrifuge tube is again mixed by inversion and incubated at 37° C. for 60 minutes for the substrate cleavage reaction to take place. Then, 480 μL of trichloroacetic acid (5% w/v) is added to stop the reaction and precipitate any unreacted casein-resorufin. The microcentrifuge tube is mixed by inversion incubated at 37° C. for 15 minutes. […] Then, 400 μL of the supernatant is added to 600 μL of assay buffer (0.5 M TRIS, pH 8.8) in a cuvette. […] The same procedure is repeated without the putative inhibitor. […] Before the start of the reaction, A and Ai are nearly zero. […] The rates, vi and v, and the inhibitor concentration [I] are used to calculate IC50 according to the equation expressed above.

Molecule | IC50 [µM]
CC(C)CC(=O)N[C@H](C(=O)N[C@H](C(=O)N[C@@H](CC(C)C)[C@@H](O)CC(=O)N[C@@H](C)C(=O)N[C@@H](CC(C)C)[C@@H](O)CC(=O)O)C(C)C)C(C)C [Pepstatin A] (Isovaleryl-VV[Sta]A[Sta]-OH) | > 32
CC(=O)N[C@@H](CC(C)C)C(=O)N[C@@H](CC(C)C)C(=O)N[C@H](C=O)CCCNC(=N)N [Leupeptin] | > 320
CC(C)C[C@H](NC(=O)[C@@H](NC(=O)N[C@@H](Cc1ccccc1)C(=O)O)[C@@H]1CCN=C(N)N1)C(=O)N[C@H](C=O)Cc1ccccc1 [Chymostatin] | 64
Soybean trypsin inhibitor: plant-derived trypsin inhibitor (protein, UniProt P01070 25-205, looked up) Trypsin inhibitor A: DFVLDNEGNPLENGGTYYILSDITAFGGIRAAPTGNERCPLTVVQSRNELDKGIGTIISSPYRIRFIAEGHPLSLKFDSFAVIMLCVGIPTEWSVVEDLPEGPAVKIGENKDAMDGWFRLERVSDDEFNNYKLVFCPQQAEDDKCGDIGISIDHDDGTRRLVVSKNKPLVVQFQKLDKESL | 4.9
